Test results from article PMC8041751, “Structural basis for an exceptionally strong preference for asparagine residue at the S2 subsite of Stenotrophomonas maltophilia dipeptidyl peptidase 7” (Scientific Reports, 2021).
Residues, ends and D or L forms follow the SMILES beside them.

Key:
PgDPP11 = PgDPP11 (Porphyromonas gingivalis, UniProt B2RID1); experiment: biochemical
Protocol: Figure 2 Correlation diagrams between the hydrophobicity index (H.I.) of P2-amino acid and residual DPP activities of S46 peptidases. (a) SmDPP7. The outlier dipeptides Asn-Tyr and Trp-Tyr are coloured in red and blue, respectively (see text). (b) PgDPP7. Tyr-Tyr-MCA hydrolysis of PgDPP7 was inhibited by Xaa-Tyr dipeptide. Residual activity was measured under conditions where 200 µM dipeptides and 200 µM Tyr-Tyr-MCA were added into the reaction solution. (c) DPP11 from S. maltophilia (SmDPP11). (d) PgDPP11. For DPP11s, Leu-Asp-MCA hydrolysis was inhibited by Xaa-Asp dipeptide. Residual activity was measured under conditions where 100 µM dipeptides and 100 µM Leu-Asp-MCA were added into the reaction solution. The hydrophobicity indices of the amino acids were adopted from Sereda et al., 1994 and Mohera et al. 1995[25],[26]. R is the correlation coefficient. The standard deviations were obtained from three independent experiments.
(§1) The dipeptide library was purchased from AnaSpec (Fremont, CA, US). Ile-Tyr and Arg-Tyr were synthesized by Eurofins Genomics (Tokyo, Japan). Cys-Tyr and Cys-Asp could not be purchased commercially. Different concentrations (3.13, 6.25, 12.5, 25, 50, 100, and 200 µM) of dipeptides as the inhibitor and 200 µM Tyr-Tyr-MCA (GenScript, NJ, US) as the substrate for DPP7 were added into a reaction buffer consisting of 50 mM sodium phosphate buffer pH 7.0, 5 mM EDTA and 0.005% Tween 20. For DPP11s, different concentrations (1.56, 3.13, 6.25, 12.5, 25, 50, and 100 µM) of dipeptides as the inhibitor and 100 µM Leu-Asp-MCA (Peptide Institute, Osaka, Japan) as the substrate were used. The enzyme reaction was performed at 298 K for 20 min and standard deviations were calculated from three independent experiments. Half-maximal inhibitory concentration (IC50) values were determined by fitting to a sigmoid curve (4-parameter logistic curve) using ImageJ software[35] and inhibition constants (Ki) were calculated using the Cheng-Prusoff Equation[36]. The fluorescence intensity of the released MCA was measured with the same method of determination of kinetics parameters toward dipeptidyl MCA.

[1] = of the amino acid; ref 25,26 (Sereda et al. and Mohera et al.); cited from earlier work
SmDPP7 = experiment: Inhibition assay using dipeptide library, Tyr-Tyr-MCA hydrolysis; assay type: biochemical, Stenotrophomonas maltophilia; conditions: Xaa-Tyr as competitive inhibitor; substrate 200 µM Tyr-Tyr-MCA; pH 7.0, 298 K; Ki from IC50 by Cheng-Prusoff
Protocol: Figure 1 Effect of Xaa-Tyr dipeptides on the hydrolytic activity of SmDPP7 towards synthetic substrate Tyr-Tyr-MCA. Inhibition assay was performed as described in “Materials and methods”. Residual activity was measured under conditions where 200 µM Xaa-Tyr dipeptide and 200 µM Tyr-Tyr-MCA, synthetic substrate were added into the reaction solution. […] The standard deviations were obtained from three independent experiments.
as §1

wild-type SmDPP7 = experiment: Kinetic parameters toward dipeptidyl MCA; assay type: biochemical, Stenotrophomonas maltophilia; conditions: pH 7.0, 298 K
Protocol: (§2) Kinetic parameters were determined by fitting the experimental data to the Michaelis–Menten equation using Excel Solver (Microsoft, WA, US) by nonlinear least-squares fitting with different concentrations of glycyl-L-tyrosyl-4-methylcoumaryl-7-amide (3.91, 7.81, 15.6, 31.3, 62.5, 125, 250, and 500 µM; Gly-Tyr-MCA; GenScript, NJ, US), L-tyrosyl-L-tyrosyl-4-methylcoumaryl-7-amide (1.56, 3.13, 6.25, 12.5, 25, 50, 100, and 200 µM; Tyr-Tyr-MCA; GenScript, NJ, US), L-asparaginyl-L-tyrosyl-4-methylcoumaryl-7-amide (1.56, 3.13, 6.25, 12.5, 25, 50, 100, and 200 µM; Asn-Tyr-MCA; GenScript, NJ, US), and L-leucinyl-L-asparaginic acid-4-methylcoumaryl-7-amide (0.781, 1.56, 3.13, 6.25, 12.5, 25, 50, and 100 µM; Leu-Asp-MCA; Peptide Institute, Osaka, Japan) as a substrate. The enzyme reaction was performed in a reaction buffer consisting of 50 mM sodium phosphate buffer pH 7.0, 5 mM EDTA, and 0.005% Tween 20 at 298 K for 20 min and standard deviations were calculated from three independent experiments. […] For SmDPP7 (wild-type and mutants), concentrations of the purified enzymes were 10, 2, and 2 nM for the hydrolyses of Gly-Tyr-MCA, Tyr-Tyr-MCA, and Asn-Tyr-MCA, respectively. Concentration of purified PgDPP7 used for determining kinetic parameters of Tyr-Tyr-MCA hydrolysis was 25 nM. For SmDPP11 and PgDPP11, concentrations of the purified enzymes used for determining kinetic parameters of Leu-Asp-MCA hydrolysis were 0.5 nM and 1 nM, respectively. The fluorescence intensity of the released MCA was measured with excitation at 355 nm and emission at 460 nm using an Infinite 200 PRO microplate reader (Tecan, Switzerland).

SmDPP7 R218A mutant = experiment: Kinetic parameters toward dipeptidyl MCA; assay type: biochemical, Stenotrophomonas maltophilia; parameters: key: “–” means not determined due to low activity
Protocol: (§3) To test the roles of the residues located in the S2 subsite for P2 residue recognition by SmDPP7, we replaced the following residues with alanine and analysed the enzymatic activities of the mutant enzymes on synthetic substrates, Gly-Tyr-MCA, Tyr-Tyr-MCA, and Asn-Tyr-MCA (Table 2). The mutated residues and their estimated roles were: Lys206, Arg218, Thr220, and Phe671 for interaction with the P2 side chain.
as §2

SmDPP7 R218Q mutant = experiment: Kinetic parameters toward dipeptidyl MCA; assay type: biochemical, Stenotrophomonas maltophilia
SmDPP7 F671A mutant = experiment: Kinetic parameters toward dipeptidyl MCA; assay type: biochemical, Stenotrophomonas maltophilia
Protocol: as §3, §2

SmDPP7 K206A mutant = experiment: Kinetic parameters toward dipeptidyl MCA; assay type: biochemical, Stenotrophomonas maltophilia
Protocol: as §3, §2

SmDPP7 R218K mutant = experiment: Kinetic parameters toward dipeptidyl MCA; assay type: biochemical, Stenotrophomonas maltophilia
Protocol: as §3, §2

SmDPP7 T220A mutant = experiment: Kinetic parameters toward dipeptidyl MCA; assay type: biochemical, Stenotrophomonas maltophilia
Protocol: as §3, §2

Sequence of PgDPP11 (B2RID1 22-720): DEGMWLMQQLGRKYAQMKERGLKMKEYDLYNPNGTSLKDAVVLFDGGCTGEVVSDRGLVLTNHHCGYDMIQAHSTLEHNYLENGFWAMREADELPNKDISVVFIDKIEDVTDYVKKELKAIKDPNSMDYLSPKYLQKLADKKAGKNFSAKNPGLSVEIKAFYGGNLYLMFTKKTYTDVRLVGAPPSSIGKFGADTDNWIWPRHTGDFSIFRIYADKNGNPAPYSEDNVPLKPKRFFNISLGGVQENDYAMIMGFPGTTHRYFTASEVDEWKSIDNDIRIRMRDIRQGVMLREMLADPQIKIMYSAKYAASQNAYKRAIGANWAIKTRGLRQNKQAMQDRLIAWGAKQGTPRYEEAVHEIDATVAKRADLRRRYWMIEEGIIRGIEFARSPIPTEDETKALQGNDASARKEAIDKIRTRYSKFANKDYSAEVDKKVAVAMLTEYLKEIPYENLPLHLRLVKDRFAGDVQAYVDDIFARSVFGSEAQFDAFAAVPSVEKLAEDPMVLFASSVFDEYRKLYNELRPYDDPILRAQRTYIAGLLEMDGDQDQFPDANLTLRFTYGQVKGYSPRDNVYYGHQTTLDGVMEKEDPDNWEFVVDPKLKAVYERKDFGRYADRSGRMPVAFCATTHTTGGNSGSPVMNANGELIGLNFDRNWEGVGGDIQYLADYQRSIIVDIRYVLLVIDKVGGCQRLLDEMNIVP

## C[C@H](N)C(=O)N[C@@H](CC(=O)O)C(=O)O [Ala-Asp] (H-Ala-Asp-OH)
PgDPP11
  Ki: > 5.11 µM

## C[C@H](N)C(=O)O [Ala]
[1]
  H.I. of P2 aa (hydrophobicity index): 41

## N=C(N)NCCC[C@H](N)C(=O)N[C@@H](CC(=O)O)C(=O)O [Arg-Asp] (H-Arg-Asp-OH)
PgDPP11
  Ki: > 5.11 µM

## NC(=O)C[C@H](N)C(=O)N[C@@H](CC(=O)O)C(=O)O [Asn-Asp] (H-Asn-Asp-OH)
PgDPP11
  Ki: 4.06 ± 0.16 µM

## N[C@@H](CC(=O)O)C(=O)N[C@@H](CC(=O)O)C(=O)O [Asp-Asp] (H-Asp-Asp-OH)
PgDPP11
  Ki: > 5.11 µM

## NC(=O)CC[C@H](N)C(=O)N[C@@H](CC(=O)O)C(=O)O [Gln-Asp] (H-Gln-Asp-OH)
PgDPP11
  Ki: > 5.11 µM

## N[C@@H](CCC(=O)O)C(=O)N[C@@H](CC(=O)O)C(=O)O [Glu-Asp] (H-Glu-Asp-OH)
PgDPP11
  Ki: > 5.11 µM

## NCC(=O)N[C@@H](CC(=O)O)C(=O)O [Gly-Asp] (H-Gly-Asp-OH)
PgDPP11
  Ki: > 5.11 µM

## N[C@@H](Cc1c[nH]cn1)C(=O)N[C@@H](CC(=O)O)C(=O)O [His-Asp] (H-His-Asp-OH)
PgDPP11
  Ki: > 5.11 µM

## N[C@@H](Cc1c[nH]cn1)C(=O)O [His]
[1]
  H.I. of P2 aa (hydrophobicity index): 8

## CC[C@H](C)[C@H](N)C(=O)N[C@@H](CC(=O)O)C(=O)O [Ile-Asp] (H-Ile-Asp-OH)
PgDPP11
  Ki: > 5.11 µM

## CC[C@H](C)[C@H](N)C(=O)O [Ile]
[1]
  H.I. of P2 aa (hydrophobicity index): 99

## CC(C)C[C@H](N)C(=O)N[C@@H](CC(=O)O)C(=O)O [Leu-Asp] (H-Leu-Asp-OH)
PgDPP11
  Ki: 3.35 ± 0.23 µM

## NCCCC[C@H](N)C(=O)N[C@@H](CC(=O)O)C(=O)O [Lys-Asp] (H-Lys-Asp-OH)
PgDPP11
  Ki: > 5.11 µM

## CSCC[C@H](N)C(=O)N[C@@H](CC(=O)O)C(=O)O [Met-Asp] (H-Met-Asp-OH)
PgDPP11
  Ki: > 5.11 µM

## CSCC[C@H](N)C(=O)O [Met]
[1]
  H.I. of P2 aa (hydrophobicity index): 74

## N[C@@H](Cc1ccccc1)C(=O)N[C@@H](CC(=O)O)C(=O)O [Phe-Asp] (H-Phe-Asp-OH)
PgDPP11
  Ki: 5.11 ± 0.06 µM

## N[C@@H](Cc1ccccc1)C(=O)O [Phe]
[1]
  H.I. of P2 aa (hydrophobicity index): 100

## O=C(O)C[C@H](NC(=O)[C@@H]1CCCN1)C(=O)O [Pro-Asp] (H-Pro-Asp-OH)
PgDPP11
  Ki: > 5.11 µM

## N[C@@H](CO)C(=O)N[C@@H](CC(=O)O)C(=O)O [Ser-Asp] (H-Ser-Asp-OH)
PgDPP11
  Ki: > 5.11 µM

## C[C@@H](O)[C@H](N)C(=O)N[C@@H](CC(=O)O)C(=O)O [Thr-Asp] (H-Thr-Asp-OH)
PgDPP11
  Ki: > 5.11 µM

## N[C@@H](Cc1c[nH]c2ccccc12)C(=O)N[C@@H](CC(=O)O)C(=O)O [Trp-Asp] (H-Trp-Asp-OH)
PgDPP11
  Ki: 1.36 ± 0.06 µM

## N[C@@H](Cc1c[nH]c2ccccc12)C(=O)O [Trp]
[1]
  H.I. of P2 aa (hydrophobicity index): 97

## N[C@@H](Cc1ccc(O)cc1)C(=O)N[C@@H](CC(=O)O)C(=O)O [Tyr-Asp] (H-Tyr-Asp-OH)
PgDPP11
  Ki: > 5.11 µM

## N[C@@H](Cc1ccc(O)cc1)C(=O)O [Tyr]
[1]
  H.I. of P2 aa (hydrophobicity index): 63

## CC(C)[C@H](N)C(=O)N[C@@H](CC(=O)O)C(=O)O [Val-Asp]
PgDPP11
  Ki: > 5.11 µM

## CC(C)[C@H](N)C(=O)O [Val]
[1]
  H.I. of P2 aa (hydrophobicity index): 76

## Ala-Tyr
SmDPP7
  Ki: > 58 µM

## Asp-Tyr
SmDPP7
  Ki: > 58 µM

## Glu-Tyr
SmDPP7
  Ki: > 58 µM

## Gly-Tyr
SmDPP7
  Ki: > 58 µM

## His-Tyr
SmDPP7
  Ki: > 58 µM

## L-asparaginyl-L-tyrosyl-4-methylcoumaryl-7-amide [Asn-Tyr-MCA]
wild-type SmDPP7
  Km: 51.3 ± 1.6 µM
  kcat: 3.67 ± 0.12 s⁻¹
SmDPP7 R218A mutant
  Km: –
  kcat: –
  kcat/Km: –
SmDPP7 R218Q mutant
  Km: 390 ± 14 µM
  kcat: 0.198 ± 0.006 s⁻¹
SmDPP7 F671A mutant
  Km: 17.4 ± 1.4 µM
  kcat: 0.230 ± 0.012 s⁻¹
SmDPP7 K206A mutant
  Km: 54.1 ± 2.1 µM
  kcat: 3.47 ± 0.02 s⁻¹
SmDPP7 R218K mutant
  Km: 277 ± 6 µM
  kcat: 0.183 ± 0.008 s⁻¹
SmDPP7 T220A mutant
  Km: 66.6 ± 1.5 µM
  kcat: 2.60 ± 0.04 s⁻¹

## L-tyrosyl-L-tyrosyl-4-methylcoumaryl-7-amide [Tyr-Tyr-MCA]
wild-type SmDPP7
  Km: 81.7 ± 3.4 µM
  kcat: 3.83 ± 0.09 s⁻¹
SmDPP7 R218A mutant
  Km: –
  kcat: –
  kcat/Km: –
SmDPP7 R218Q mutant
  Km: 275 ± 11 µM
  kcat: 0.0403 ± 0.0004 s⁻¹
SmDPP7 F671A mutant
  Km: 463 ± 88 µM
  kcat: 1.54 ± 0.18 s⁻¹
SmDPP7 K206A mutant
  Km: 55.8 ± 1.5 µM
  kcat: 3.52 ± 0.04 s⁻¹
SmDPP7 R218K mutant
  Km: 251 ± 6 µM
  kcat: 0.240 ± 0.003 s⁻¹
SmDPP7 T220A mutant
  Km: 46.4 ± 2.4 µM
  kcat: 1.82 ± 0.07 s⁻¹

## Pro-Tyr
SmDPP7
  Ki: > 58 µM

## Ser-Tyr
SmDPP7
  Ki: > 58 µM

## glycyl-L-tyrosyl-4-methylcoumaryl-7-amide [Gly-Tyr-MCA]
wild-type SmDPP7
  Km: 183 ± 4 µM
  kcat: 0.702 ± 0.022 s⁻¹
SmDPP7 R218A mutant
  Km: –
  kcat: –
  kcat/Km: –
SmDPP7 R218Q mutant
  Km: 717 ± 63 µM
  kcat: 0.0365 ± 0.0018 s⁻¹
SmDPP7 F671A mutant
  Km: 688 ± 38 µM
  kcat: 0.191 ± 0.009 s⁻¹
SmDPP7 K206A mutant
  Km: 201 ± 10 µM
  kcat: 0.751 ± 0.015 s⁻¹
SmDPP7 R218K mutant
  Km: 586 ± 40 µM
  kcat: 0.0238 ± 0.0011 s⁻¹
SmDPP7 T220A mutant
  Km: 215 ± 10 µM
  kcat: 0.454 ± 0.010 s⁻¹
